Test results: ChEMBL document CHEMBL5126668, “The Invention of WM382, a Highly Potent PMIX/X Dual Inhibitor toward the Treatment of Malaria” (ACS Med Chem Lett, 2022)
≈ marks a conversion by molar mass, not a printed value.

Columns and labels:
[1] = tested on: Plasmodium falciparum; test: Antimalarial activity against asexual blood stage Plasmodium falciparum infected in RBC measured after 72 hrs by LDH release assay; format: functional, organism-based; conditions: Erythrocyte
[2] = biological target: T1, Plasmepsin IX (Plasmodium falciparum, UniProt Q8ILG2); test: Inhibition of Plasmodium falciparum 3D7 HA-glms-tagged PMIX using DABCYL-HSFIQEGKEE-EDANS as substrate measured after 2 hrs by FRET assay
T1 sequence (Q8ILG2 whole entry): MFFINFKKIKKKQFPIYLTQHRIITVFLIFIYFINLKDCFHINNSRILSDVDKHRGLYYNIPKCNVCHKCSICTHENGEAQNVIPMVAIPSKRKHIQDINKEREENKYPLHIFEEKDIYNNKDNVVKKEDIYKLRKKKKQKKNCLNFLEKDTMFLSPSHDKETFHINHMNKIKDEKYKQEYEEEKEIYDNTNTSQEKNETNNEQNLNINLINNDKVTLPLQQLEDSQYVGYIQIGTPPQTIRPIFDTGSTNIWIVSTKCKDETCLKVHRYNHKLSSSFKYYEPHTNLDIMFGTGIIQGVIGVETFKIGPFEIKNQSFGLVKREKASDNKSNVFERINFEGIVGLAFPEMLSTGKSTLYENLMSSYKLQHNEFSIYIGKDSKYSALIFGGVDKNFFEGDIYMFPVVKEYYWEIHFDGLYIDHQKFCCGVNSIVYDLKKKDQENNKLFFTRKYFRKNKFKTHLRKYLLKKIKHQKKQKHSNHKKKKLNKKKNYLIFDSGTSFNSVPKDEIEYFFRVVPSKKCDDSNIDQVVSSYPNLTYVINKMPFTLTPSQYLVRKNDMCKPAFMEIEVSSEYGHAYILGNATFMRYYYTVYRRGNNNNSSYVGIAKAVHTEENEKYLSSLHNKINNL

[3] = biological target: Plasmepsin X (Plasmodium falciparum (isolate 3D7), UniProt Q8IAS0); test: Inhibition of Plasmodium falciparum 3D7 HA-glms-tagged PMX using DABCYL-HSFIQEGKEE-EDANS as substrate measured after 2 hrs by FRET assay
Sequence of Plasmepsin X (Q8IAS0 whole entry): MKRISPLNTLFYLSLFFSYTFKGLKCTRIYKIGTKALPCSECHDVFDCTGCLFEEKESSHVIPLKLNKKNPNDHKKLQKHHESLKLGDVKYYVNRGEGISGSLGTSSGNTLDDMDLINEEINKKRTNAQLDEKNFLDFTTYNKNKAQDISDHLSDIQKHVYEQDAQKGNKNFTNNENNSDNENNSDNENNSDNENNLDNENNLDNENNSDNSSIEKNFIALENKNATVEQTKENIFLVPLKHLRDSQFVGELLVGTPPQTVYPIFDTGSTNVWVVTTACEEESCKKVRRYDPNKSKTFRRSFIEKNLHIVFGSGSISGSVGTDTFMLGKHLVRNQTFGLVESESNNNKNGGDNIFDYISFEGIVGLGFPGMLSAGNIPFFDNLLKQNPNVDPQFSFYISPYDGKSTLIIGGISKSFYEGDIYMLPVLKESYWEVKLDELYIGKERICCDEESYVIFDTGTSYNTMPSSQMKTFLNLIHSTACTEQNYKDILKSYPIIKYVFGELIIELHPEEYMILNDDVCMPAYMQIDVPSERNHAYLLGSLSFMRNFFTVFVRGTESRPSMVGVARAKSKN

[4] = Lipophilicity, log D of compound at pH 7.4; format: physicochemical; conditions: buffer
[5] = Unbound plasma clearance in mouse; format: ADME, organism-based; conditions: in vivo
[6] = Volume of distribution in mouse; format: ADME, organism-based; conditions: in vivo
[7] = Unbound volume of distribution in rat; format: ADME; conditions: in vivo
[8] = Kinetic solubility of the compound; format: physicochemical; conditions: read-out: Kinetic_solubility
[9] = Unbound volume of distribution in mouse; format: ADME, organism-based; conditions: in vivo
[10] = Apparent permeability across apical to basolateral side in MDCK cells; format: ADME, cell-based, Canis lupus familiaris; conditions: dog
[11] = Protein binding in mouse plasma; format: ADME, cell-free; conditions: read-out: PPB (converted)
[12] = Mean residence time in mouse; format: ADME, organism-based; conditions: in vivo
[13] = Plasma clearance in rat; format: ADME
[14] = Oral bioavailability in rat; format: ADME, organism-based; conditions: in vivo
[15] = Volume of distribution in rat; format: ADME; conditions: in vivo
[16] = Unbound clearance in rat; format: ADME; conditions: in vivo
[17] = Protein binding in rat plasma; format: ADME, cell-free; conditions: read-out: PPB (converted)
[18] = Mean residence time in rat; format: ADME; conditions: in vivo
[19] = Oral bioavailability in mouse; format: ADME, organism-based; conditions: in vivo
[20] = Plasma clearance in mouse; format: ADME, organism-based

SMILES: CC(C)CC(c1ccc(C(F)(F)F)c(C(=O)N2Cc3nccnc3C2)c1)N1C(=N)N[C@](CC2CC2)(c2ccccc2)CC1=O (some centres undefined)
- EC50 [1]: 17 nM

SMILES: CC(C)[C@]1(C)CC(=O)N(Cc2cccc(C(=O)N[C@H]3CCOc4ccccc43)c2)C(=N)N1
- EC50 [1]: 1.5 nM

SMILES: CCC1(CC)CC(=O)N([C@@H]2CCOc3ccc(C(=O)N[C@H]4CCS(=O)(=O)c5ccccc54)cc32)C(=N)N1
- EC50 [1]: 18 nM
- IC50 [2]: 24 nM
- IC50 [3]: 0.3 nM

SMILES: CCC1(CC)CC(=O)N([C@@H](c2ccccc2)c2cccc(C(=O)N[C@@H](C)c3ccccc3)c2)C(=N)N1
- EC50 [1]: 830 nM

SMILES: CCC1(CC)CC(=O)N(Cc2cccc(C(=O)N[C@@H](C)c3ccccc3)c2)C(=N)N1
- EC50 [1]: 114 nM

SMILES: CCC1(CC)CC(=O)N(Cc2cncc(C(=O)N[C@H]3CCOc4ccccc43)c2)C(=N)N1
- EC50 [1]: 10 nM

SMILES: CCC1(CC)CC(=O)N([C@@H]2CCOc3ccc(C(=O)N[C@H]4CCCOc5ccccc54)cc32)C(=N)N1
- EC50 [1]: 2.8 nM
- IC50 [2]: 68 nM
- IC50 [3]: 0.6 nM

SMILES: CCNC(=O)c1cccc(CN2C(=N)N[C@](C)(C(C)C)CC2=O)c1
- EC50 [1]: > 1000 nM

SMILES: CCC1(CC)CC(=O)N(Cc2cc(F)cc(C(=O)N[C@@H](C)c3ccccc3)c2)C(=N)N1
- EC50 [1]: 93 nM

SMILES: CCC1(CC)CC(=O)N([C@H](c2cccnc2)c2cccc(C(=O)N[C@@H](C)c3ccccc3)c2)C(=N)N1
- EC50 [1]: 1 nM

SMILES: CC(C)[C@]1(C)CC(=O)N(Cc2cccc(C(=O)NC3CCCc4ccccc43)c2)C(=N)N1 (mixture of isomers)
- EC50 [1]: 68 nM

SMILES: CCC1(CC)CC(=O)N(Cc2cc(C(=O)N[C@H]3CCOc4ccccc43)ccn2)C(=N)N1
- EC50 [1]: 12 nM

SMILES: CC(C)[C@]1(C)CC(=O)N(Cc2cccc(C(=O)N[C@@H](C)c3ccccc3)c2)C(=N)N1
- EC50 [1]: 308 nM

SMILES: CC(NC(=O)c1cccc(CN2C(=N)N[C@](C)(C(C)C)CC2=O)c1)c1ccccn1 (mixture of isomers)
- EC50 [1]: > 1000 nM

SMILES: CCC1(CC)CC(=O)N([C@@H]2CCOc3ccc(C(=O)N[C@@H]4c5ccccc5OC4(C)C)cc32)C(=N)N1
- EC50 [1]: 1.4 nM
- IC50 [2]: 12 nM
- IC50 [3]: 0.4 nM

SMILES: CCC1(CC)CC(=O)N([C@@H]2CCOc3ccc(C(=O)NC4CCOc5ccccc54)cc32)C(=N)N1 (single isomer, unassigned)
- EC50 [1]: 2.5 nM
- logD [4]: 2.1
- CL free [5]: 76.68 L/h/kg
- Vd [6]: 5.4 L/kg
- Vdu [7]: 80 L/kg
- solubility kinetic [8]: 0.2 µM (≈ 0.0953 µg/mL)
- Vdu [9]: 102 L/kg
- Papp A→B [10]: 88 nm/s
- fraction unbound [11]: 0.053
- MRT [12]: 1.3 h
- IC50 [2]: 2.2 nM
- clearance [13]: 4.74 L/h/kg
- bioavailability [14]: 27%
- Vd [15]: 12 L/kg
- CL free [16]: 31.1 L/h/kg
- fraction unbound [17]: 0.152
- MRT [18]: 2.7 h
- bioavailability [19]: 4%
- IC50 [3]: 0.07 nM
- clearance [20]: 4.08 L/h/kg

SMILES: CC(C)[C@]1(C)CC(=O)N(Cc2cccc(C(=O)NC3COCc4ccccc43)c2)C(=N)N1 (mixture of isomers)
- EC50 [1]: 53 nM

SMILES: C[C@H](NC(=O)c1cc(F)cc(CN2C(=N)NC3(CCCCC3)CC2=O)c1)c1ccccc1
- EC50 [1]: 250 nM

SMILES: CC(C)[C@]1(C)CC(=O)N(Cc2cccc(C(=O)NCCc3ccccc3)c2)C(=N)N1
- EC50 [1]: > 1000 nM

SMILES: CC(C)[C@]1(C)CC(=O)N(Cc2cccc(C(=O)NC3CCNc4ccccc43)c2)C(=N)N1 (mixture of isomers)
- EC50 [1]: 64 nM

SMILES: CCC1(CC)CC(=O)N([C@H](CCN2CCCC2)c2cccc(C(=O)N[C@@H](C)c3ccccc3)c2)C(=N)N1
- EC50 [1]: 8.7 nM

SMILES: CCC1(CC)NC(=N)N(Cc2cc(F)cc(C(=O)N[C@@H](C)c3ccccc3)c2)C1=O
- EC50 [1]: > 1000 nM

SMILES: CCC1(CC)CC(=O)N([C@H](CCO)c2cccc(C(=O)N[C@@H](C)c3ccccc3)c2)C(=N)N1
- EC50 [1]: 210 nM

SMILES: CCC[C@H](c1cccc(C(=O)N[C@@H](C)c2ccccc2)c1)N1C(=N)NC(CC)(CC)CC1=O
- EC50 [1]: 0.8 nM
